pIC50: −log10 of the molar value. Active and inactive are the calls of the source.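 How the source made its calls: active means mean IC50 below a set limit; inactive means the rest.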

The target in the experiment is Alkaline phosphatase, placental type (Homo sapiens) (UniProt P05187). The experiment in a line: inhibition of placental alkaline phosphatase – biochemical, uHTS hits, luminescence, selectivity assay for human IAP inhibitor project, dose response (AID 488892). The settings on record: purified PLAP, CDP-Star luminescence, 30 min.
By pIC50 is commonly meant the negative decadic logarithm of the IC50, by convention in mol/L. With `CNc1nnc(-c2cc3ccccc3oc2=O)s1`, the pIC50 was 5.39.

With `Nc1ccc(-c2c3ccc(=O)cc-3oc3cc(O)ccc23)cc1C(=O)O`, the pIC50 was 4.52.

With `N#C/C(=C\c1ccc(O)c(O)c1)C(=O)c1ccc(O)c(O)c1`, the pIC50 was 5.25.

In the case of `CCN(CC)c1ccc(N=Nc2nn(C)c(C)c2[N+](=O)[O-])cc1`, the pIC50 is 4.31.

`CCOc1cc(/C=C2/C(=O)ON=C2C)cc(Br)c1O`: the pIC50 is 4.45.

Consider `COc1ccc2nc3cc(Cl)ccc3c(Nc3cc(CN4CCCC4)c(O)c(CN4CCCC4)c3)c2n1`, for which the negative logarithm of the IC50 (pIC50) was 4.94.

As for `c1ccc(CSCCc2ccncc2)cc1`, the pIC50 was 4.52.

Turning to `CN(C)c1ccc2nc3c(=O)[nH]c(=O)nc-3n(CC(O)C(O)C(O)CO)c2c1` (stereo not drawn), the pIC50 was 4.52.

Regarding `CCN1/C(=C\c2ccc3ccccc3[n+]2CC)Sc2cc(C)ccc21`, the pIC50 is 4.55.

For `CN(C)c1ccc(N=Nc2ccccc2Br)cc1`, the pIC50 was 4.55.

Take `C=CCN1C(=O)/C(=C\C=C2\N(C)c3ccccc3C2(C)C)SC1=S`: the negative logarithm of the IC50 (pIC50) was 4.97.

Consider `CC(C)=CCc1c(O)ccc2c1OC(c1ccc(O)c(O)c1)CC2=O` (stereo not drawn), for which the pIC50 is 4.35.

Consider `COc1cc(/C=C(\C#N)C(=O)c2ccc(O)c(O)c2)cc(I)c1O`, for which the pIC50 is 4.81.

Regarding `O=C(/C=C/c1ccccc1O)c1ccco1`, the pIC50 was 4.12.

With `Oc1ccc(N=Nc2c(O)ccc3ccccc23)cc1`, the pIC50 was 4.74.

By IC50 is commonly meant the concentration that gives 50% inhibition. Regarding `C/C(=N/Nc1ccccc1[N+](=O)[O-])c1ccc([N+](=O)[O-])cc1`, the IC50 was > 100 µM (inactive).

Regarding `COc1ccc(C=C2C(=O)c3ccccc3C2=O)cc1O`, the pIC50 is 4.83.

In the case of `O=C1Nc2ccccc2/C1=N\N=C\c1ccc(O)c(O)c1`, the pIC50 was 5.06.

Regarding `CC1=NN(Cc2ccccc2)C(=O)/C1=C\c1ccc(N(C)C)cc1`, the pIC50 was 4.42.

With `O=C1C2C3C=CC(C3)C2C(=O)N1c1n[nH]c(-c2cccnc2)n1` (stereo not drawn), the IC50 is > 100 µM (inactive).

Consider `CC[n+]1c(/C=C/c2c[nH]c3ccccc23)ccc2cc(C)ccc21`, for which the pIC50 is 4.97.

Take `O=C(NN1C(=O)/C(=C/c2ccc(O)c([N+](=O)[O-])c2)SC1=S)c1ccccc1Cl`: the pIC50 was 4.55.

Take `O=c1c2cc(O)c(O)cc2oc2cc(O)c(C3OC(CO)C(O)C(O)C3O)c(O)c12` (stereo not drawn): the pIC50 is 5.57.

The values are drawn from PubChem BioAssay AID488892 (Sanford-Burnham Center for Chemical Genomics, 2010).
